{"source": "patent US6331570A", "about": "“Active enantiomer of RARγ-specific agonist” (Bristol-Myers Squibb Company, priority 1999, dated 2001)", "key": {"papillomas": {"system": "papillomas", "test": "two-stage system of mouse skin carcinogenesis (DMBA initiator, TPA promoter)", "format": "in vivo", "settings": "i.p."}, "[1]": {"settings": "prior art / general statement; cited from earlier work"}, "[2]": {"settings": "13-cis-retinoic acid 50 mg/kg (dose from text), 10 weeks monitoring"}}}
{"compound": "CC1=C(/C=C/C(C)=C/C=C/C(C)=C\\C(=O)O)C(C)(C)CCC1", "note": "[13-cis-retinoic acid]", "values": [{"measurement": "number and size of papillomas", "setting": "papillomas; 50 mg/kg, 10 weeks", "result": "inactive"}, {"measurement": "Tumor Burden (mean tumor size per mouse)", "setting": "papillomas; [2]", "result": 6.8, "unit": "mm^3"}, {"measurement": "Tumor Incidence (% of mice with tumors)", "setting": "papillomas; [2]", "result": 80, "unit": "%"}, {"measurement": "liver toxicity", "setting": "[1]", "result": "adverse side-effects on long-term use such as liver toxicity"}]}
